# According to US20170196868A1, “METHODS AND COMPOSITIONS FOR TREATMENT OF HER-POSITIVE CANCERS” (UNIVERSITY OF SOUTH CAROLINA, priority 2014, published 2017):
# “And” between values parts separate entries of the source, which are not always exact repeats. Equal entries are not always repeated.
# Columns and labels:
# Type in all cases: cell-based
# [1] = tested on: ER-HER2+ breast cancer cell line JIMT-1; assay: MTT assay for relative cell number, drug combination analysis (CompuSyn CI)
# Method: (§1) In these experiments, 2000 cells/well were plated in each well of 96 well plates. […] Treatment was repeated after 3 days, and the MTT assay for relative cell number was performed after the total of 7 days of treatment. The Combination Index (CI) values were calculated using CompuSyn® (www.combosyn.com), a web tool based on the principles described in Chou (2006).
# (§2) The same analysis as above was conducted in ER-HER2+ breast cancer cell line HCC-1419 which, despite high levels of HER2, is intrinsically resistant to trastuzumab but sensitive to lapatinib; this pattern of resistance has been associated with activated phosphoinositide 3-kinase/AKT signaling (O'Brien et al., 2010). We also analyzed ER-HER2+ breast cancer cell line JIMT-1, which is intrinsically resistant to both trastuzumab and lapatinib.
# [2] = tested on: SKBR3 (ER-HER2+) breast cancer cell line; assay: Emergence of lapatinib resistance, continuous exposure for 16 weeks, crystal violet staining; details: for inhibition of cell growth after 1 week of treatment: single agent, 2.5 μM Senexin B or 250 nM lapatinib
# From the text: (§3) A major problem for chemotherapy in general and for molecularly targeted drugs in particular is the development of drug resistance. The ability to prevent the development of drug resistance could allow sustained response to targeted drugs and transform the outcome of cancer therapy. Since CDK8 is a key mediator of transcriptional reprogramming (Galbraith et al., 2010, 2013), we hypothesized that CDK8 inhibition may prevent the induction of transcription that may be associated with epigenetic acquisition of drug resistance. To test this hypothesis, we plated BT474 (ER+HER2+) and SKBR3 (ER-HER2+) breast cancer cell lines at 250,000 cells per T25 flask, and the cells were continuously exposed to 2.5 μM Senexin B, 250 nM lapatinib, alone and in combination, for a period of 16 weeks, changing drug-containing media twice a week. At selected time points, cells in flasks were fixed with methanol:acetic acid and stained with crystal violet. The results for BT474 are shown in FIG. 9 and for SKBR3 in FIG. 10. […] However, by week 4 (in the case of BT474) or week 8 (in the case of SKBR3), the outgrowth of cells treated with lapatinib alone became noticeable compared to cells treated with lapatinib+Senexin B combination.
# [3] = tested on: BT474 (ER+HER2+) breast cancer cell line; assay: as above; details: for inhibition of cell growth after 1 week of treatment: single agent, 2.5 μM Senexin B or 250 nM lapatinib
# From the text: as §3
# [4] = tested on: lapatinib-selected SKBR3-LT cells; assay: Sensitivity of lapatinib-selected cells versus parental SKBR3, 7-day treatment; details: 7 days
# [5] = tested on: HER2+ colon cancer cell line HT-29; assay: MTT assay for relative cell number, drug combination analysis (CompuSyn CI); details: for response of cells to drug alone: single agent
# Method: (§4) FIG. 1 presents an analysis of the nature of the interaction between CDK8/19 inhibitor Senexin B (a.k.a. SNX2-1-165) developed and owned by Senex Biotechnology, Inc.) and a HER2-specific monoclonal antibody (a biosimilar of trastuzumab from Biocad, Strelna, Russia) in BT474, a ER+HER2+ breast cancer cell line. In these experiments, 2000 cells/well were plated in each well of 96 well plates. […] Treatment was repeated after 3 days, and the MTT assay for relative cell number was performed after the total of 7 days of treatment. The Combination Index (CI) values were calculated using CompuSyn® (www.combosyn.com), a web tool based on the principles described in Chou (2006). […] Similar analysis was conducted for the interaction between Senexin B and lapatinib (LAP), a small-molecule inhibitor of both HER2 and EGFR, in the same cells; using a SNXB:LAP molar ratio of 10:1.
# (§5) To determine if CDK8/19 inhibition affects the response of HER2+ colon cancer cells to lapatinib, we conducted the same type of analysis as above on two HER2+ colon cancer cell lines, HCT-116 and HT-29 (both plated at 1500 cells per well).
# [6] = tested on: HER2+ colon cancer cell line HCT-116; assay: as above; details: for response of cells to drug alone: single agent
# Method: as §4, §5
# [7] = tested on: ER-HER2+ breast cancer cell line HCC-1419; assay: as above
# Method: as §1, §2
# ER-HER2+ cell line SKBR3 = assay: as above; details: Senexin B + lapatinib; three experiments
# Method: as §4
# The same analysis was then conducted using an ER-HER2+ cell line SKBR3 (cells were plated at 1,500 cells per well).
# [8] = tested on: BT474, a ER+HER2+ breast cancer cell line; assay: as above
# Method: as §4
# [9] = tested on: BT474 breast cancer cells; assay: Emergence of erlotinib resistance, continuous treatment for 35 days
# Method: We conducted a similar experiment with BT474 breast cancer cells continuously treated with erlotinib, an inhibitor of EGFR, another member of the same HER family as HER2/Neu. 600,000 cells per T75 flask were plated in the continuous presence of […] erlotinib, […] Senexin B, or a combination of both (changing drug-containing media twice a week). […] The macroscopic and microscopic views of the corresponding samples after 35 days of treatment are shown in FIG. 11 and FIG. 12, respectively.
# [10] = 250 nM lapatinib alone, compared to lapatinib+Senexin B combination
# [11] = Senexin B + trastuzumab biosimilar (TRAST)
# [12] = combination of 250 nM lapatinib and 2.5 μM Senexin B
# [13] = combination of Senexin B and lapatinib
structure (smiles),measurement,setting,value
CS(=O)(=O)CCNCc1ccc(-c2ccc3ncnc(Nc4ccc(OCc5cccc(F)c5)c(Cl)c4)c3c2)o1 [lapatinib],response of cells to drug alone,[1]; single agent,resistant
same,cell growth after 16 weeks of continuous treatment,[2]; 250 nM lapatinib alone,actively proliferating
same,time by which outgrowth of treated cells became noticeable,[2]; [10],≤ 8 week
same,inhibition of cell growth after 1 week of treatment,[2],extremely effective
same,cell growth after 16 weeks of continuous treatment,[3]; 250 nM lapatinib alone,actively proliferating
same,time by which outgrowth of treated cells became noticeable,[3]; [10],≤ 4 week
same,inhibition of cell growth after 1 week of treatment,[3],extremely effective
same,sensitivity of SKBR3-LT relative to SKBR3,[4]; single agent,less sensitive
same,response of cells to drug alone,[5],weak response
same,response of cells to drug alone,[6],weak response
CN1CCN(C(=O)c2ccc3cc(CCNc4ncnc5ccc(C#N)cc45)ccc3c2)CC1 [Senexin B],IC50 CI (Combination Index),[1]; Senexin B + lapatinib,0.39
same,IC50 CI (Combination Index),[1]; [11],0.04
same,CI (Combination Index),[7]; Senexin B + lapatinib,0.64
same,CI (Combination Index),[7]; [11],0.45
same,IC50 CI (Combination Index),ER-HER2+ cell line SKBR3,0.611 and 0.674 and 0.470
same,cell growth after 16 weeks of continuous treatment,[2]; [12],did not grow
same,inhibition of cell growth after 1 week of treatment,[2],limited effect
same,cell growth after 16 weeks of continuous treatment,[3]; [12],did not grow
same,inhibition of cell growth after 1 week of treatment,[3],limited effect
same,sensitivity of SKBR3-LT relative to SKBR3,"[4]; Senexin B combination with lapatinib, fixed ratio",essentially unchanged
same,sensitivity of SKBR3-LT relative to SKBR3,"[4]; Senexin B combination with trastuzumab biosimilar, fixed ratio",essentially unchanged
same,sensitivity of SKBR3-LT relative to SKBR3,[4]; single agent,essentially unchanged
same,IC75 CI (Combination Index),"[8]; Senexin B (SNXB) + trastuzumab biosimilar (HER), fixed ratio 100 nM SNXB:1 μg/ml HER, 7 days, first experiment",0.019
same,IC50 CI (Combination Index),"[8]; Senexin B + lapatinib (LAP), SNXB:LAP molar ratio 10:1, separate experiments",0.512 and 0.728
same,emergence of resistant colonies after 35 days of treatment,[9]; combination of 10 mM erlotinib and 1 mM Senexin B,prevented the emergence of resistance
same,CI (Combination Index),[5]; Senexin B + lapatinib,0.314
same,response of cells to combination,[5]; [13],significant response
same,response of cells to drug alone,[5],weak response
same,CI (Combination Index),[6]; Senexin B + lapatinib,0.647
same,response of cells to combination,[6]; [13],significant response
same,response of cells to drug alone,[6],weak response
C#Cc1cccc(Nc2ncnc3cc(OCCOC)c(OCCOC)cc23)c1 [erlotinib],emergence of resistant colonies after 35 days of treatment,[9]; 10 mM erlotinib alone,erlotinib-resistant colonies emerged
same,initial effect on cell growth,[9]; 10 mM erlotinib alone,initially inhibited cell growth
